Data reported in patent publication US10093664B2, “Bicyclo[1.1.1]pentane inhibitors of dual leucine zipper (DLK) kinase for the treatment of disease” (priority 2016, dated 2018).
Where two headings read alike, the source gives them in different places.

What was measured:
[1] = target: T1, human DLK (Homo sapiens (Human), UniProt Q12852); assay: biochemical; assay type: binding
Procedure: The DLK dissociation constants (Kd) have been determined in the KINOMEscan KdELECT Service at DiscoveRx.
A fusion protein of full length of human DLK (amino acids 1-859) and the DNA binding domain of NFkB was expressed in transiently transfected HEK293 cells. From these HEK 293 cells, extracts were prepared in M-PER extraction buffer (Pierce) in the presence of Protease Inhibitor Cocktail Complete (Roche) and Phosphatase Inhibitor Cocktail Set II (Merck) per manufacturers' instructions. The DLK fusion protein was labeled with a chimeric double-stranded DNA tag containing the NFkB binding site (5′-[sequence]-3′) fused to an amplicon for qPCR readout, which was added directly to the expression extract (the final concentration of DNA-tag in the binding reaction is 0.1 nM).
The liganded beads were blocked with excess biotin and washed with blocking buffer (SeaBlock (Pierce), 1% BSA, 0.05% Tween 20, 1 mM DTT) to remove unbound ligand and to reduce nonspecific binding.
Extracts were used directly in binding assays without any enzyme purification steps at a ≥10,000-fold overall stock dilution (final DNA-tagged enzyme concentration <0.1 nM). Extracts were loaded with DNA-tag and diluted into the binding reaction in a two step process. First extracts were diluted 1:100 in 1× binding buffer (PBS/0.05% Tween 20/10 mM DTT/0.1% BSA/2 μg/ml sonicated salmon sperm DNA) containing 10 nM DNA-tag. This dilution was allowed to equilibrate at room temperature for 15 minutes and then subsequently diluted 1:100 in 1× binding buffer. Test compounds were prepared as 111× stocks in 100% DMSO. Kds were determined using an 11-point 3-fold compound dilution series with three DMSO control points. […] The compounds were then diluted directly into the assays such that the final concentration of DMSO was 0.9%. All reactions performed in polypropylene 384-well plates. Each was a final volume of 0.02 mL. Assays were incubated with shaking for 1 hour at room temperature. Then the beads were pelleted and washed with wash buffer (1×PBS, 0.05% Tween 20) to remove displaced kinase and test compound. […] The kinase concentration in the eluates was measured by qPCR. qPCR reactions were assembled by adding 2.5 μL of kinase eluate to 7.5 μL of qPCR master mix containing 0.15 μM amplicon primers and 0.15 μM amplicon probe. The qPCR protocol consisted of a 10 minute hot start at 95° C., followed by 35 cycles of 95° C. for 15 seconds, 60° C. for 1 minute.
Test compounds were prepared as 11× stocks in 100% DMSO. Kds were determined using an 11-point 3-fold compound dilution series with three DMSO control points. […] The compounds were then diluted directly into the assays such that the final concentration of DMSO was 0.9%. The Kds were determined using a compound top concentration of 30,000 nM. Kd measurements were performed in duplicate.
Binding constants (Kds) were calculated with a standard dose-response curve using the Hill equation:
The Hill Slope was set to −1.

[2] = target: T1, human DLK; assay: cell-based; details: p-cJun (Ser63)
Procedure: HEK293 cells stably transfected with a Dox-inducible human DLK were plated into a 384-well plate in 20 μl (40,000 cells/well) of DMEM medium (without phenol red) containing 10% fetal bovine serum, 1.5 μg/ml doxycycline and 1 μg/ml puromycin. The cells as negative control were grown in the absence of doxycycline. The plate was incubated at 37° C., 5% CO2 for 20 h, before DMSO (control) or compounds diluted in medium were added. The cells were incubated at 37° C. for an additional 5 h, followed by lysis and the addition detection antibodies from p-cJun (Ser63) cellular assay kit (Cisbio) per manufacturer protocol. The standard dose response curves were fitted by Genedata Screener software using the variable-slope model: Signal=Signalnegative control+(SignalDMSO control−Signalnegative control)/(1+(IC50/Dose)^Hill slope). Only signal and dose in the equation were treated as known values.

[3] = Table 2b DLK activity (global), read-out: Kd
[4] = Table 2b (global), additional assay runs on multiple batches, includes Table 2a data in the averaging, HEK293, read-out: Cell IC50

| Structure (SMILES) | Kd [1, 3] [nM] | IC50 [2, 4] [nM] | Kd ([1]; read-out: Avg DLK Kd) [nM] | IC50 ([2]; Table 2a, HEK293 cells, Dox-inducible human DLK, 5 h compound, read-out: Avg Phospho-cJun Cell IC50) [nM] |
| --- | --- | --- | --- | --- |
| Nc1ncc(-c2cn(C34CC(C3)C4)c(C(O)C3CC3)n2)cc1OC(F)(F)F (stereo not drawn) [Example 56, (4-(6-amino-5-(trifluoromethoxy)pyridin-3-yl)-1-(bicyclo[1.1.1]pentan-1-yl)-1H-imidazol-2-yl)(cyclopropyl)methanol] | 5.1 | 275 |  |  |
| N#CC1(c2nc(-c3cnc(N)c(OC(F)(F)F)c3)cn2C23CC(N4CCOCC4)(C2)C3)CC1 [Example 29, 1-(4-(6-amino-5-(trifluoromethoxy)pyridin-3-yl)-1-(3-morpholinobicyclo[1.1.1]pentan-1-yl)-1H-imidazol-2-yl)cyclopropane-1-carbonitrile] | 20 | 531 |  |  |
| Nc1ncc(-c2cn(C34CC(C3)C4)c([C@@H](O)C(F)(F)F)n2)cc1C(F)(F)F (single isomer, unassigned) [Example 6b] | 0.74 | 38.7 |  |  |
| FCCn1ccc2ncc(-c3cn(C45CC(N6CCOCC6)(C4)C5)c(C4CC4)n3)cc21 [Example 21, 4-(3-(2-cyclopropyl-4-(1-(2-fluoroethyl)-H-pyrrolo[3,2-b]pyridin-6-yl)-H-imidazol-1-yl)bicyclo[1.1.1]pentan-1-yl)morpholine, bis(2,2,2-trifluoroacetate)] | 330 | 5870 |  |  |
| Nc1ncc(-c2cn(C34CC(N5CCN(CCF)CC5)(C3)C4)c(C3CC3)n2)cc1OC(F)(F)F [Example 17, 5-(2-cyclopropyl-1-(3-(4-(2-fluoroethyl)piperazin-1-yl)bicyclo[1.1.1]pentan-1-yl)-1H-imidazol-4-yl)-3-(trifluoromethoxy)pyridin-2-amine] | 6.9 | 281 |  |  |
| C#CCN1CCN(C23CC(n4cc(-c5cnc(N)c(OC(F)(F)F)c5)nc4[C@@H](O)C(C)C)(C2)C3)CC1 (single isomer, unassigned) [Example 9a] |  | 20.2 |  |  |
| Nc1ncc(-c2cn(C34CC(N5CCOCC5)(C3)C4)c(C3CCCO3)n2)cc1OC(F)(F)F (stereo not drawn) [Example 32, 5-(1-(3-morpholinobicyclo[1.1.1]pentan-1-yl)-2-(tetrahydrofuran-2-yl)-1H-imidazol-4-yl)-3-(trifluoromethoxy)pyridin-2-amine] | 6.7 | 518 |  |  |
| CN1CCN(C23CC(n4cc(-c5cnc(N)c(OC(F)(F)F)c5)nc4C4CC4)(C2)C3)C(=O)C1 [Example 23, 1-(3-(4-(6-amino-5-(trifluoromethoxy)pyridin-3-yl)-2-cyclopropyl-1H-imidazol-1-yl)bicyclo[1.1.1]pentan-1-yl)-4-methylpiperazin-2-one] | 17 | 471 |  |  |
| FC(F)(F)c1c[nH]c2ncc(-c3cn(C45CC(N6CCOCC6)(C4)C5)c(C4CC4)n3)cc12 [Example 18, 4-(3-(2-cyclopropyl-4-(3-(trifluoromethyl)-1H-pyrrolo[2,3-b]pyridin-5-yl)-1H-imidazol-1-yl)bicyclo[1.1.1]pentan-1-yl)morpholine] | 1.9 | 155 |  |  |
| Nc1ncc(-c2cn(C34CC(N5CCOCC5)(C3)C4)c(C3COC3)n2)cc1OC(F)(F)F [Example 31, 5-(1-(3-morpholinobicyclo[1.1.1]pentan-1-yl)-2-(oxetan-3-yl)-1H-imidazol-4-yl)-3-(trifluoromethoxy)pyridin-2-amine] | 170 | 2570 |  |  |
| Nc1ncc(-c2cn(C34CC(C3)C4)c([C@H](O)C(F)(F)F)n2)cc1C(F)(F)F (single isomer, unassigned) [Example 6a] |  | 745 |  |  |
| CCC(O)c1nc(-c2cnc(N)c(OC(F)(F)F)c2)cn1C12CC(C1)C2 (stereo not drawn) [Example 54, 1-(4-(6-amino-5-(trifluoromethoxy)pyridin-3-yl)-1-(bicyclo[1.1.1]pentan-1-yl)-1H-imidazol-2-yl)propan-1-ol] | 11 | 319 |  |  |
| CC(C)Cc1nc(-c2cnc(N)c(C(F)(F)F)c2)cn1C12CC(N3CCOCC3)(C1)C2 [Example 47, 5-(2-isobutyl-1-(3-morpholinobicyclo[1.1.1]pentan-1-yl)-1H-imidazol-4-yl)-3-(trifluoromethyl)pyridin-2-amine] | 6 | 655 |  |  |
| CC(C)Cc1nc(-c2cnc(N)c(OC(F)(F)F)c2)cn1C12CC(N3CCOCC3)(C1)C2 [Example 45, 5-(2-isobutyl-1-(3-morpholinobicyclo[1.1.1]pentan-1-yl)-1H-imidazol-4-yl)-3-(trifluoromethoxy)pyridin-2-amine] | 15 | 761 |  |  |
| CC(C)(C)Cc1nc(-c2cnc(N)c(OC(F)(F)F)c2)cn1C12CC(N3CCOCC3)(C1)C2 [Example 39, 5-(1-(3-morpholinobicyclo[1.1.1]pentan-1-yl)-2-neopentyl-1H-imidazol-4-yl)-3-(trifluoromethoxy)pyridin-2-amine] | 210 | 4040 |  |  |
| Nc1ncc(-c2cn(C34CC(N5CCOCC5)(C3)C4)c(C3CC3)n2)cc1C(F)(F)F [Example 4] | 8.3 | 400 | 13 | 366 |

| Structure (SMILES) | Kd [1, 3] [nM] | IC50 [2, 4] [nM] | Kd ([1]; read-out: Avg DLK Kd) [nM] | IC50 ([2]; Table 2a, HEK293 cells, Dox-inducible human DLK, 5 h compound, read-out: Avg Phospho-cJun Cell IC50) [nM] |
| --- | --- | --- | --- | --- |
| C#CCN1CCN(C23CC(n4cc(-c5cnc(N)c(OC(F)(F)F)c5)nc4[C@H](O)C(C)C)(C2)C3)CC1 (single isomer, unassigned) [Example 9b] |  | 684 |  |  |
| Nc1ncc(-c2cn(C34CC(N5CCOCC5)(C3)C4)c(C3CCOC3)n2)cc1OC(F)(F)F (stereo not drawn) [Example 30, 5-(1-(3-morpholinobicyclo[1.1.1]pentan-1-yl)-2-(tetrahydrofuran-3-yl)-1H-imidazol-4-yl)-3-(trifluoromethoxy)pyridin-2-amine] | 390 | 5110 |  |  |
| Nc1ncc(-c2cn(C34CC(N5CCOCC5)(C3)C4)c(C(O)C(F)(F)F)n2)cc1C(F)(F)F (single isomer, unassigned) [Example 69b, 1-(4-(6-amino-5-(trifluoromethyl)pyridin-3-yl)-1-(3-morpholinobicyclo[1.1.1]pentan-1-yl)-1H-imidazol-2-yl)-2,2,2-trifluoroethan-1-ol] |  | 722 |  |  |
| CN1CCN(C23CC(n4cc(-c5cnc(N)c(OC(F)(F)F)c5)nc4C4CC4)(C2)C3)CC1=O [Example 22, 4-(3-(4-(6-amino-5-(trifluoromethoxy)pyridin-3-yl)-2-cyclopropyl-1H-imidazol-1-yl)bicyclo[1.1.1]pentan-1-yl)-1-methylpiperazin-2-one] | 9.7 | 404 |  |  |
| CN1CCN(C23CC(n4cc(-c5cnc(N)c(C(F)(F)F)c5)nc4C4CC4)(C2)C3)CC1 [Example 75, 5-(2-cyclopropyl-1-(3-(4-methylpiperazin-1-yl)bicyclo[1.1.1]pentan-1-yl)-1H-imidazol-4-yl)-3-(trifluoromethyl)pyridin-2-amine] | 7.5 | 256 |  |  |
| Nc1ncc(-c2cn(C34CC(N5CCOCC5)(C3)C4)c(C3CCCC3)n2)cc1OC(F)(F)F [Example 44, 5-(2-cyclopentyl-1-(3-morpholinobicyclo[1.1.1]pentan-1-yl)-1H-imidazol-4-yl)-3-(trifluoromethoxy)pyridin-2-amine] | 53 | 841 |  |  |
| Nc1ncc(-c2cn(C34CC(C3)C4)c(CO)n2)cc1C(F)(F)F [Example 58, (4-(6-amino-5-(trifluoromethyl)pyridin-3-yl)-1-(bicyclo[1.1.1]pentan-1-yl)-1H-imidazol-2-yl)methanol] | 18 | 846 |  |  |
| COCCN(C)C12CC(n3cc(-c4cnc(N)c(OC(F)(F)F)c4)nc3C3CC3)(C1)C2 [Example 24, 5-(2-cyclopropyl-1-(3-((2-methoxyethyl)(methyl)amino)bicyo[1.1.1]pentan-1-yl)-1H-imidazol-4-yl)-3-(trifluoromethoxy)pyridin-2-amine] | 6.8 | 553 |  |  |
| CC(C)c1nc(-c2cnc(N)c(OC(F)(F)F)c2)cn1C12CC(N3CCN(C)CC3)(C1)C2 [Example 74, 5-(2-isopropyl-1-(3-(4-methylpiperazin-1-yl)bicyclo[1.1.1]pentan-1-yl)-1H-imidazol-4-yl)-3-(trifluoromethoxy)pyridin-2-amine] | 4.5 | 196 |  |  |
| CN1CCN(C23CC(n4cc(-c5cnc(N)c(OC(F)(F)F)c5)nc4CC4CC4)(C2)C3)CC1 [Example 72, 5-(2-(cyclopropylmethyl)-1-(3-(4-methylpiperazin-1-yl)bicyclo[1.1.1]pentan-1-yl)-1H-imidazol-4-yl)-3-(trifluoromethoxy)pyridin-2-amine] | 19 | 1160 |  |  |
| CCC(C)c1nc(-c2cnc(N)c(OC(F)F)c2)cn1C12CC(N3CCOCC3)(C1)C2 (stereo not drawn) [Example 51, 5-(2-(sec-butyl)-1-(3-morpholinobicyclo[1.1.1]pentan-1-yl)-1H-imidazol-4-yl)-3-(difluoromethoxy)pyridin-2-amine] | 21 | 763 |  |  |
| Nc1ncc(-c2cn(C34CC(N5CCOCC5)(C3)C4)c(C3CCC3)n2)cc1OC(F)(F)F [Example 43, 5-(2-cyclobutyl-1-(3-morpholinobicyclo[1.1.1]pentan-1-yl)-1H-imidazol-4-yl)-3-(trifluoromethoxy)pyridin-2-amine] | 32 | 598 |  |  |
| Nc1ncc(-c2cn(C34CC(C3)C4)c(C(O)C(F)(F)F)n2)cc1OC(F)(F)F (stereo not drawn) [Example 63b, 1-(4-(6-amino-5-(trifluoromethoxy)pyridin-3-yl)-1-(bicyclo[1.1.1]pentan-1-yl)-1H-imidazol-2-yl)-2,2,2-trifluoroethan-1-ol] | 1.6 |  |  |  |
| CCCN1CCN(C23CC(n4cc(-c5cnc(N)c(OC(F)(F)F)c5)nc4C(O)C(C)C)(C2)C3)CC1 (stereo not drawn) [Example 70, 1-(4-(6-amino-5-(trifluoromethoxy)pyridin-3-yl)-1-(3-(4-propylpiperazin-1-yl)bicyclo[1.1.1]pentan-1-yl)-1H-imidazol-2-yl)-2-methylpropan-1-ol] |  | 923 |  |  |
| Nc1ncc(-c2cn(C34CC(N5CCOCC5)(C3)C4)c([C@@H](O)C(F)(F)F)n2)cc1OC(F)(F)F (single isomer, unassigned) [Example 8b] |  | 284 |  |  |
